The values that follow come from patent US10709745B2, “Tropic cell based virotherapy for the treatment of cancer” (priority 2013, dated 2020).

The subject of assay [1] is HB1.F3-CD. In words: TMZ IC50 with simultaneous XRT. In kind it is cell-based. To be noted: Homo sapiens; treated with XRT (2 Gy) simultaneously. As to the method:
(§1) For all studies, the cells and mice received XRT in accordance with the University of Chicago's radiation safety guidelines and protocols. All cells received a single dose of 2 Gy XRT. For animal studies, 10 Gy fractioned dose radiotherapy (2 Gy for 5 consecutive days) was used. The animals were irradiated with a lead cover shielding their entire body, with only their heads exposed. […] For in vivo studies, the mice received 2.5, 5, 10, or 30 mg/kg TMZ via intraperitoneal injection.
NSCs have an inherent pathotropism toward glioma, which is critical for their utility as cell carriers. Therefore, it is critical that such intrinsic molecular properties and phenotypes of NSCs are maintained during radio-chemotherapy (XRT-TMZ). […] Oct4, a marker of self-renewal for undifferentiated cells, was expressed in 87.6±1.1% of the loaded NSCs. […] The percentage of Oct4 positive cells decreased to 81±2% (*, p<0.05), whereas the MFI was not reduced. […] Because of the high priority of safety when working with the undifferentiated v-myc immortalized HB1.F3-CD stem cell line (Kim et al. 2008), an in vivo safety monitoring experiment was performed to test the effect of XRT-TMZ on loaded HB1.F3-CD cellular transformation. CRAd-S-pk7-loaded NSCs were implanted in the brains of nude mice with no tumor burden. […]

In assay [2] the test system is GBM43. In words: TMZ IC50 with simultaneous XRT. The format is cell-based. To be noted: Homo sapiens; treated with XRT (2 Gy) simultaneously. The method, then: as §1
The subject of assay [3] is GBM39. In words: Glioma cell viability (MTT) under XRT-TMZ with or without CRAd-S-pk7. The format is cell-based. Particulars: Homo sapiens, treated with XRT (2 Gy) simultaneously. The method, then:
FIGS. 44A and 44B show the optimization of combination therapy in vitro according to one embodiment. (FIG. 44A): Cytotoxicity of U251 and U87 glioma cell lines and GBM39 patient-derived cell line treated with Rx-OV or OV-Rx. Left: The percentage of viability of glioma cells measured by 3-(4,5-dimethylthiazol-2-yl)-2,5-diphenyltetrazolium bromide 96 hours after treatment. Right: Representative light microscope pictures of U87 glioma cell viability (magnification, ×10). (FIG. 44B): Percentage of apoptotic GBM43 cells at 48 hours after treatment with Rx-OV or OV-Rx treatment protocols as measured by the expression of active caspase-3-positive tumor cells by FACS (bottom). […]
A green fluorescent protein (GFP) expressing HB1.F3-CD cell line was generated as described elsewhere (Ahmed et al. 2011a). […] Following lysate preparation, the mean fluorescence intensity (MFI) was estimated for each group of cocultured cells using the GloMax 20/20 Luminometer (Promega). […] U251, U87, and GBM39 cell viability was determined using 3-(4,5-dimethylthiazol-2-yl)-2,5-diphenyltetrazolium bromide (MTT) cell proliferation kit (Roche Diagnostics, Mannheim, Germany, http://www.roche-applied-science.com). The viability was subsequently determined by MTT as described by the manufacturer's protocol. Cell viability was expressed as the percentage of cells alive compared with the dimethyl sulfoxide-treated control. […]

For assay [4], the system named is NSCs (HB1.F3-CD). In words: CRAd-S-pk7 replication in NSCs treated with XRT-TMZ (E1A qPCR, titer). The format is cell-based, human. To be noted: day 4; TMZ 100 µM. The method, then:
FIGS. 41A, 41B and 41C show evaluation of CRAd-Survivin-pk7 (CRAd-S-pk7) replication in neural stem cells (NSCs) treated with XRT-TMZ according to one embodiment. Viral replication of CRAd-S-pk7 was measured by quantitative real-time polymerase chain reaction and presented as a number of viral E1A copies per nanogram of DNA from infected NSCs. (FIG. 41A, 41B): Viral replication was evaluated daily up to 96 hours after treatment with 0, 10, 50, or 100 µM TMZ (FIG. 41A) and 0, 2, or 4 Gy of XRT (FIG. 41B). (FIG. 41C): CRAd-S-pk7 viral titer levels 96 hours after XRT-TMZ treatment of infected NSCs. […] Abbreviations: DMSO, dimethyl sulfoxide; IU, infectious units; TMZ, temozolomide; XRT, radiation therapy.
To detect the level of viral replication, NSCs were infected with 50 IU of CRAd-S-pk7 and treated with XRT-TMZ. […] Adenoviral E1A gene expression was quantified via qRTPCR using iQ SYBR Green supermix (Bio-Rad, Hercules, Calif., http://www.bio-rad.com), using primers and protocol previously described (Sonabend et al. 2009). The quantification of infectious viral progeny of NSCs was conducted using the Adeno-X rapid titer kit protocol (Clontech, Mountain View, Calif., http://www.clontech.com) as described elsewhere (Thaci et al. 2012). The titration unit (IU/ml) values quantified through this protocol are similar to plaque-forming units. […]
A general note: In qPCR the cycle at which signal appears reflects the starting amount.

As to `Cn1nnc2c(C(N)=O)ncn2c1=O` [TMZ, temozolomide], the results for the half-maximal inhibitory concentration (IC50) in assay [1], in assay [2] and in assay [3] were 15 µM, 37 µM and 50 µM, respectively. Moreover, the “decrease in E1A copies per nanogram of DNA” value in assay [4] came out at 3 fold.

One may read the IC50 as the concentration that inhibits the measured activity by half.
